Data as given in BindingDB's records for patent US20250066350 (Innovstone Therapeutics, 2025).

Target: Serine/threonine-protein kinase ATR (Homo sapiens, UniProt Q13535)
Experiment: ATR Enzyme Assay
Description: I. Experimental Materials and Instruments1. ATR enzyme (Eurofins Pharma Discovery Services, 14-953M)2. GST-tagged P53 protein (Eurofins Pharma Discovery Services, 14-952M)3. 384-well plate (Geriner bio-one, 784075)4. U-bottom 96-well plate (Geriner bio-one, 651201)5. Anti-phospho-P53 protein antibody labeled with europium cryptate (cisbio, 61P08KAZ)6. Anti-GST antibody linked to d2 (cisbio, 61GSTDLB)7. ATP solution (Sigma, R0441)8. DTT (Sigma, D0632-259)9. HEPES (Sigma, 15630080)10. Microplate reader (Envision 2104 Multilabel Reader)II. Experimental Steps15 nM ATR enzyme, 80 nM P53 protein, 300 nM ATP (the final concentrations were 40 nM and 150 nM, respectively), and small molecule compounds of various concentrations (the final concentrations (nM) of the ten points were 2985.0, 895.5, 298.5, 110.56, 33.17, 11.06, 4.09, 1.23, 0.41 and 0.15, respectively, and the final dimethyl sulfoxide concentration was 0.498%) were mixed and incubated at room temperature for 90 minutes. 10 μL of 2× cocktail buffer was added to the mixture of ATR, compound and substrate in the assay plate (anti-phospho-p53-Eu and anti-GST-d2 were diluted in the assay buffer). The resulting mixture was centrifuged at 1000 rpm for 30 seconds, and incubated overnight at 4° C. in the dark (a total of 20 μl in each well). The FRET signal (endpoint) was measured in the Envision instrument (HTRF 665/612 ratio was calculated at 665 nm emission and 612 nm emission). Data were processed using GraphPad software.

Chain of Serine/threonine-protein kinase ATR (Q13535 whole entry): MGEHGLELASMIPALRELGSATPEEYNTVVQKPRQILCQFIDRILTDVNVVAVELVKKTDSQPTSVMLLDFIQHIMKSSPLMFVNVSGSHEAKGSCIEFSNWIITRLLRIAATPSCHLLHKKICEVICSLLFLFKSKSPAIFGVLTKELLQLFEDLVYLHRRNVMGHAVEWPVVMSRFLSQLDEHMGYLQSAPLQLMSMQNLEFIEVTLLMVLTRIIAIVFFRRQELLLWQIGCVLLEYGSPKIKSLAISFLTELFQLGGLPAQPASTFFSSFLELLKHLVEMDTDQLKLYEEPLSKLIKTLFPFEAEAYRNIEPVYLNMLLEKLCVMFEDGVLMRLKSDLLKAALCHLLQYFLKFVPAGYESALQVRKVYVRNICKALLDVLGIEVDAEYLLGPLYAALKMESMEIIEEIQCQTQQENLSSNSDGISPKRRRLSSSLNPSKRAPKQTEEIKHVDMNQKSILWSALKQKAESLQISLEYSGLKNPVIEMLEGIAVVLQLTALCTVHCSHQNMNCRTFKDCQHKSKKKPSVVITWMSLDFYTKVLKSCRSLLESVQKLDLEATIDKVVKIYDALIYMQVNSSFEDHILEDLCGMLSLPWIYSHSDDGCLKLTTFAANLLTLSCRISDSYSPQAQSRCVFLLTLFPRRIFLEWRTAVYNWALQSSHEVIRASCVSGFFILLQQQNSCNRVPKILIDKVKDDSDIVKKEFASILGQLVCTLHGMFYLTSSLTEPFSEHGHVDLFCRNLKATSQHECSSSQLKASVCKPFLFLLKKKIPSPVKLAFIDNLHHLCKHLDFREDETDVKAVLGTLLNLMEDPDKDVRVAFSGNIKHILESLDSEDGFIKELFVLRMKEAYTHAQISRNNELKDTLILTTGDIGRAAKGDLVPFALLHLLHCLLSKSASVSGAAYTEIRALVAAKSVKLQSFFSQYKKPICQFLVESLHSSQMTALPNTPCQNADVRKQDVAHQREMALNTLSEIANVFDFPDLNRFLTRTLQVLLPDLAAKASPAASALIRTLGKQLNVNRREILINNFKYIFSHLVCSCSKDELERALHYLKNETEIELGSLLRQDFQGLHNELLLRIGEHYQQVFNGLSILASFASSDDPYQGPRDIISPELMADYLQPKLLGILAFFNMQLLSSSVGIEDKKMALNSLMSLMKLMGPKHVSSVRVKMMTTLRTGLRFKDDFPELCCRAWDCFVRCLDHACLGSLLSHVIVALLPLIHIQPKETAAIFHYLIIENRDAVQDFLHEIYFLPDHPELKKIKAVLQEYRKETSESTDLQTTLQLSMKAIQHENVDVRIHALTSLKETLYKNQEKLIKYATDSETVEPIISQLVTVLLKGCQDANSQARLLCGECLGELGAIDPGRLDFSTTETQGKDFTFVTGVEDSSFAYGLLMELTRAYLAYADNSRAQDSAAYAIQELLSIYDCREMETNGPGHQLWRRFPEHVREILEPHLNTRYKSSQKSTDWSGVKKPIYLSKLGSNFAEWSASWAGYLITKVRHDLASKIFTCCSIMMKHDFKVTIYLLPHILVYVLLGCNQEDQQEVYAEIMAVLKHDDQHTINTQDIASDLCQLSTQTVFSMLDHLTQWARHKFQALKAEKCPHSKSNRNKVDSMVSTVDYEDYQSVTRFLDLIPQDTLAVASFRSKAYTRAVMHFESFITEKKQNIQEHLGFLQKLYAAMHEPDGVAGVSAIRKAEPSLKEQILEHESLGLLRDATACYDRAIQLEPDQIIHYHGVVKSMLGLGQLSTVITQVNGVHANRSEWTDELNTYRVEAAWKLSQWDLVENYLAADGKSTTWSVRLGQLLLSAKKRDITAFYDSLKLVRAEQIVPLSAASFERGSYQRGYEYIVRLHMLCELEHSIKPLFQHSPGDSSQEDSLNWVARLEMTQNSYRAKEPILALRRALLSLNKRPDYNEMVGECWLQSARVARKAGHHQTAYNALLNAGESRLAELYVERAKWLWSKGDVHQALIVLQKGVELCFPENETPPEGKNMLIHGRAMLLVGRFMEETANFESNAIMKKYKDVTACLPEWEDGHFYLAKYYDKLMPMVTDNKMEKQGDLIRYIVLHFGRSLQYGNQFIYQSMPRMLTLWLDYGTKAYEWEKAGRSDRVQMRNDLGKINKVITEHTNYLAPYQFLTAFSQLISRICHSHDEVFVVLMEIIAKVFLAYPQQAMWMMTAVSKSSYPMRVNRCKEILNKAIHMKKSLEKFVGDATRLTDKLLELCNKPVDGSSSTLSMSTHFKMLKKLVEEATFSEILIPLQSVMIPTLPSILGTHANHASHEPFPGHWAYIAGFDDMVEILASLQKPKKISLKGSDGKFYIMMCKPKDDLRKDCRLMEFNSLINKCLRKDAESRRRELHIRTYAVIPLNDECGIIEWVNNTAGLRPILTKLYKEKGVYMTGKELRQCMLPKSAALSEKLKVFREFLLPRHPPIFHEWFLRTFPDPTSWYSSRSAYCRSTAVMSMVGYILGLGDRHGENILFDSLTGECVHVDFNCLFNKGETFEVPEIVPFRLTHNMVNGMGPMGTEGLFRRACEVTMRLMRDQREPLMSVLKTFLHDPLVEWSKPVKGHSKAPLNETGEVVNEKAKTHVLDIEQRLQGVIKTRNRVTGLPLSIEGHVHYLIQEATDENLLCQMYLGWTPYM

Row | Compound | IC50
1 | C[C@@H]1COCCN1c1cc(-c2ccc(NC(=O)C3CCOCC3)cc2)c2cnn(-c3cc[nH]n3)c2n1 [US20250066350, Example 155] | < 10 nM
2 | C[C@@H]1COCCN1c1cc(-c2ccc(N3CC4(COC4)C3)cc2)c2cnn(-c3cc[nH]n3)c2n1 [US20250066350, Example 15] | < 10 nM
3 | C[C@@H]1COCCN1c1cc(-c2ccc(N3CCCCC3=O)nc2)c2cnn(-c3cc[nH]n3)c2n1 [US20250066350, Example 167] | < 10 nM
4 | C[C@@H]1COCCN1c1cc(C#CC2(O)CCCCC2)c2cnn(-c3cc[nH]n3)c2n1 [US20250066350, Example 6] | < 10 nM
5 | C[C@@H]1COCCN1c1cc(C#CC2CCCNC2)c2cnn(-c3ccn[nH]3)c2n1 (stereo partly specified) [US20250066350, Example 209] | < 10 nM
6 | CCC(CC)C(=O)Nc1ccc(-c2cc(N3CCOC[C@H]3C)nc3c2cnn3-c2cc[nH]n2)cc1 [US20250066350, Example 151] | < 10 nM
7 | C[C@@H]1COCCN1c1cc(-c2ccc(N3CCCCC3=O)c(F)c2)c2cnn(-c3cc[nH]n3)c2n1 [US20250066350, Example 171] | < 10 nM
8 | C[C@@H]1COCCN1c1cc(C2(O)CCC3(CC2)CO3)c2cnn(-c3cc[nH]n3)c2n1 (stereo partly specified) [US20250066350, Example 2] | < 10 nM
9 | C[C@@H]1COCCN1c1cc(-c2ccc(NC(=O)C3CCCNC3)cc2)c2cnn(-c3cc[nH]n3)c2n1 (stereo partly specified) [US20250066350, Example 159] | < 10 nM
10 | C[C@@H]1COCCN1c1cc(C#CC2(O)CCC3(CC2)CC3)c2cnn(-c3ccn[nH]3)c2n1 [US20250066350, Example 10] | < 10 nM
11 | C[C@@H]1COCCN1c1cc(-c2ccc(N3CC4CCC(O4)C3=O)cc2)c2cnn(-c3cc[nH]n3)c2n1 (stereo partly specified) [US20250066350, Example 65] | < 10 nM
12 | C[C@@H]1COCCN1c1cc(-c2ccc(NC(=O)c3ccncn3)cc2)c2cnn(-c3cc[nH]n3)c2n1 [US20250066350, Example 165] | < 10 nM
13 | C[C@@H]1COCCN1c1cc(-c2ccc(N3CCCCC3=O)cc2C(F)(F)F)c2cnn(-c3cc[nH]n3)c2n1 [US20250066350, Example 242] | < 10 nM
14 | C[C@@H]1COCCN1c1cc(C2CCCOC2)c2cnn(-c3cc[nH]n3)c2n1 (stereo partly specified) [US20250066350, Example 13] | < 10 nM
15 | Cc1[nH]nc(C(F)(F)F)c1-c1cc(N2CCOC[C@H]2C)nc2c1cnn2-c1cc[nH]n1 [US20250066350, Example 1] | < 10 nM
16 | Cc1c(-c2cc(N3CCOC[C@H]3C)nc3c2cnn3-c2cc[nH]n2)c(C(F)(F)F)nn1C1CCNCC1 [US20250066350, Example 4] | < 10 nM
17 | C[C@@H]1COCCN1c1cc(-c2ccc(NC(=O)C(F)F)cc2)c2cnn(-c3cc[nH]n3)c2n1 [US20250066350, Example 217] | < 10 nM
18 | C[C@@H]1COCCN1c1cc(-c2ccc(NC(=O)N3CCCC3)cc2)c2cnn(-c3cc[nH]n3)c2n1 [US20250066350, Example 207] | < 10 nM
19 | C[C@@H]1COCCN1c1cc(-c2ccc(N3CCCCCC3=O)cc2)c2cnn(-c3cc[nH]n3)c2n1 [US20250066350, Example 153] | < 10 nM
20 | CNC(=O)N(C)c1ccc(-c2cc(N3CCOC[C@H]3C)nc3c2cnn3-c2cc[nH]n2)cc1 [US20250066350, Example 215] | < 10 nM
21 | C[C@@H]1COCCN1c1cc(-c2ccc3c(c2)CCN3C(=O)c2ccncc2)c2cnn(-c3cc[nH]n3)c2n1 [US20250066350, Example 183] | < 10 nM

Row | Compound | IC50
22 | CC1CCCN1C(=O)Nc1ccc(-c2cc(N3CCOC[C@H]3C)nc3c2cnn3-c2cc[nH]n2)c(F)c1 (stereo partly specified) [US20250066350, Example 252] | < 10 nM
23 | C[C@@H]1COCCN1c1cc(-c2ccc(NC(=O)c3cccnc3)cc2F)c2cnn(-c3cc[nH]n3)c2n1 [US20250066350, Example 195] | < 10 nM
24 | C[C@@H]1COCCN1c1cc(-c2ccc(N3CCCCC3=O)cc2)c2cnn(-c3cc[nH]n3)c2n1 [US20250066350, Example 7] | < 10 nM
25 | C[C@@H]1COCCN1c1cc(-c2ccc(NC(=O)c3cccc(S(C)(=O)=O)c3)cc2)c2cnn(-c3cc[nH]n3)c2n1 [US20250066350, Example 145] | < 10 nM
26 | CC(=O)N1CCC(C(=O)Nc2ccc(-c3cc(N4CCOC[C@H]4C)nc4c3cnn4-c3cc[nH]n3)cc2)C1 (stereo partly specified) [US20250066350, Example 161] | < 10 nM
27 | Cc1nn(C2CCNCC2)c(C(F)(F)F)c1-c1cc(N2CCOC[C@H]2C)nc2c1cnn2-c1cc[nH]n1 [US20250066350, Example 3] | < 10 nM
28 | C[C@@H]1COCCN1c1cc(-c2cc(C#N)c(N3CCCCC3=O)cc2F)c2cnn(-c3cc[nH]n3)c2n1 [US20250066350, Example 259] | < 10 nM
29 | COCC#Cc1cc(N2CCOC[C@H]2C)nc2c1cnn2-c1cc[nH]n1 [US20250066350, Example 5] | < 10 nM
30 | C[C@@H]1COCCN1c1cc(-c2ccc(N3CCCCC3=O)c(C#N)c2)c2cnn(-c3cc[nH]n3)c2n1 [US20250066350, Example 169] | < 10 nM
31 | C[C@@H]1COCCN1c1cc(C#CC(C)(C)O)c2cnn(-c3cc[nH]n3)c2n1 [US20250066350, Example 16] | < 10 nM
32 | C[C@@H]1COCCN1c1cc(-c2ccnc3[nH]ccc23)c2cnn(-c3cc[nH]n3)c2n1 [US20250066350, Example 11] | < 10 nM
33 | C[C@@H]1COCCN1c1cc(-c2ccc(N3CCCCCC3=O)cc2F)c2cnn(-c3cc[nH]n3)c2n1 [US20250066350, Example 197] | < 10 nM
34 | C[C@@H]1COCCN1c1cc(-c2ccc(NC(=O)C3CCNC3)cc2)c2cnn(-c3cc[nH]n3)c2n1 (stereo partly specified) [US20250066350, Example 157] | < 10 nM
35 | C[C@@H]1COCCN1c1cc(-c2ccc(-c3ccnn3C)cc2F)c2cnn(-c3cc[nH]n3)c2n1 [US20250066350, Example 258] | < 10 nM
36 | C[C@@H]1COCCN1c1cc(-c2ccc(NC(=O)c3ccccc3)cc2)c2cnn(-c3cc[nH]n3)c2n1 [US20250066350, Example 163] | < 10 nM
37 | C[C@@H]1COCCN1c1cc(-c2ccc(N3CC4CCC(O4)C3=O)cc2F)c2cnn(-c3cc[nH]n3)c2n1 (stereo partly specified) [US20250066350, Example 199] | < 10 nM
38 | C[C@@H]1COCCN1c1cc(-c2ccc(NC(=O)NC34CC5CC(CC(C5)C3)C4)cc2)c2cnn(-c3cc[nH]n3)c2n1 [US20250066350, Example 187] | < 10 nM
39 | C[C@@H]1COCCN1c1cc(C2=CCCOC2)c2cnn(-c3cc[nH]n3)c2n1 [US20250066350, Example 8] | < 10 nM
40 | Cc1ccc(-c2cc(N3CCOC[C@H]3C)nc3c2cnn3-c2cc[nH]n2)cn1 [US20250066350, Example 9] | < 10 nM
41 | C[C@@H]1COCCN1c1cc(-c2ccc(NC(=O)C3CCN(C)C3)cc2)c2cnn(-c3cc[nH]n3)c2n1 (stereo partly specified) [US20250066350, Example 213] | < 10 nM
